Source: US5084453A, “1-carboxy-1-vinyloxyimino aminothiazole cephalosporin derivatives” (priority 1988, dated 1992)
Read-outs that look alike come from different tables or passages of the source.

Experiments:
Assay in all cases: in vitro antibacterial activity, agar plate dilution method
Format in all cases: cell-based
K. pneumoniae No. 42* = conditions: Klebsiella pneumoniae; 10^6 CFU/ml; β-Lactamase-producing strain; 37° C., 16 hours; read-out: MIC
Protocol: (§1) Now, the in vitro antibacterial activities of the compounds of the present invention against various microorganisms, were measured by the following agar plate dilution method.
(§2) One platinum loopfull of each test microorganism incubated overnight in Mueller Hinton broth, was inoculated to Mueller Hinton agar (MH agaer). Such culture media containing various antibiotics in various concentrations were prepared. After incubation at 37° C. for 16 hours, the minimum inhibitory concentrations (MIC μg/ml) were measured.

K. oxytoca GN10650* = conditions: Klebsiella oxytoca
Protocol: as §1, §2

S. aureus 209P NIHJ-JC1 = conditions: Staphylococcus aureus; 10^6 CFU/ml; Mueller Hinton agar, 37° C., 16 hours; read-out: MIC
Protocol: as §1, §2

E. coli CSH(RE45)* = conditions: Escherichia coli; 10^6 CFU/ml; β-Lactamase-producing strain; 37° C., 16 hours; read-out: MIC
Protocol: as §1, §2

Ps. aeruginosa AKR17 = conditions: Pseudomonas aeruginosa
Protocol: as §1, §2

K. pneumoniae PC1-602 = conditions: Klebsiella pneumoniae, PC1602; 10^6 CFU/ml; Mueller Hinton agar, 37° C., 16 hours; read-out: MIC
Protocol: as §1, §2

Ps. cepacia 23 = tested on: Ps. cepacia 23
Protocol: as §1, §2

P. vulgaris HX-19 = conditions: Proteus vulgaris, HX19; 10^6 CFU/ml; Mueller Hinton agar, 37° C., 16 hours; read-out: MIC
Protocol: as §1, §2

P. vulgaris No. 33* = conditions: Proteus vulgaris
Protocol: as §1, §2

Ps. aeruginosa AK 109 = conditions: Pseudomonas aeruginosa
Protocol: as §1, §2

M. morganii GN5407* = conditions: Morganella morganii
Protocol: as §1, §2

E. cloacae 963 = tested on: E. cloacae 963
Protocol: as §1, §2

S. marcescens No. 16-2* = conditions: Serratia marcescens, 16 h
Protocol: as §1, §2

Ps. aeruginosa IFO3445 = conditions: Pseudomonas aeruginosa, IFO3445, 16 h
Protocol: as §1, §2

E. coli CSH2(RK1)* = conditions: Escherichia coli, 16 h
Protocol: as §1, §2

E. coli NIHJ JC2 = conditions: Escherichia coli, NIHJJC2; 10^6 CFU/ml; Mueller Hinton agar, 37° C., 16 hours; read-out: MIC
Protocol: as §1, §2

A. calcoaceticus No. 4 = conditions: Acinetobacter calcoaceticus, NO.4, 16 h
Protocol: as §1, §2

E. coli GN5482* = conditions: Escherichia coli, GN5482, 16 h
Protocol: as §1, §2

S. marcescens IAM 1184 = conditions: Serratia marcescens
Protocol: as §1, §2

E. cloacae Nek 39* = conditions: Enterobacter cloacae
Protocol: as §1, §2

[1] = GN10650, 10^6 CFU/ml, β-Lactamase-producing strain, 37° C., 16 hours, read-out: MIC
[2] = AKR17, 10^6 CFU/ml, Mueller Hinton agar, 37° C., 16 hours, read-out: MIC
[3] = Burkholderia cepacia, 23, 10^6 CFU/ml, Mueller Hinton agar, 37° C., 16 hours, read-out: MIC
[4] = 10^6 CFU/ml, β-Lactamase-producing strain, 37° C., 16 hours, read-out: MIC
[5] = GN5407, 10^6 CFU/ml, β-Lactamase-producing strain, 37° C., 16 hours, read-out: MIC
[6] = IAM1184, 10^6 CFU/ml, Mueller Hinton agar, 37° C., 16 hours, read-out: MIC
[7] = Enterobacter cloacae, 963, 16 h

Compound	MIC (K. pneumoniae No. 42*) [µg/mL]	MIC (K. oxytoca GN10650*; [1]) [µg/mL]	MIC (S. aureus 209P NIHJ-JC1) [µg/mL]	MIC (E. coli CSH(RE45)*) [µg/mL]	MIC (Ps. aeruginosa AKR17; [2]) [µg/mL]	MIC (K. pneumoniae PC1-602) [µg/mL]	MIC (Ps. cepacia 23; [3]) [µg/mL]	MIC (P. vulgaris HX-19) [µg/mL]	MIC (Ps. aeruginosa AK 109; AK109, 16 h) [µg/mL]	MIC (M. morganii GN5407*; [5]) [µg/mL]	MIC (S. marcescens No. 16-2*) [µg/mL]	MIC (Ps. aeruginosa IFO3445) [µg/mL]	MIC (E. coli CSH2(RK1)*) [µg/mL]	MIC (E. coli NIHJ JC2) [µg/mL]	MIC (A. calcoaceticus No. 4) [µg/mL]	MIC (E. coli GN5482*) [µg/mL]	MIC (S. marcescens IAM 1184; [6]) [µg/mL]	MIC (E. cloacae Nek 39*; [4]) [µg/mL]	MIC (P. vulgaris No. 33*; 16 h) [µg/mL]	MIC (E. cloacae 963; [7]) [µg/mL]	other results
C=C(O/N=C(\C(=O)N[C@@H]1C(=O)N2C(C(=O)O)=C(CSc3nnc(-c4ccc(O)c(O)c4)o3)CS[C@H]12)c1csc(N)n1)C(=O)O [Example 11, disodium 7β-[2-(2-aminothiazol-4-yl)-2-(1-carboxy-1-vinyloxyimino)acetamido]-3-[5-(3,4-dihydroxyphenyl)-1,3,4-oxadiazol-2-yl]thiomethyl-3-cephem-4-carboxylate (syn-isomer)]	0.025	0.025	12.5	0.05	3.12	< 0.006	< 0.006	< 0.006	0.2	0.0125	0.2	0.39	< 0.006	0.05	0.1	0.1	0.025	0.025			MIC (P. vulgaris No. 33*; [4]): 0.0125 µg/mL; MIC (E. cloacae 963; Enterobacter cloacae, 963, 10^6 CFU/ml, Mueller Hinton agar, 37° C., 16 hours, read-out: MIC): 0.025 µg/mL
C=C(O/N=C(\C(=O)N[C@@H]1C(=O)N2C(C(=O)O)=C(CSc3nc(-c4ccc(O)c(O)c4)cs3)CS[C@H]12)c1csc(N)n1)C(=O)O [Example 12, disodium 7β-[2-(2-aminothiazol-4-yl)-2-(1-carboxylato-1-vinyloxyimino)acetamido]-3-[4-(3,4-dihydroxyphenyl)thiazol-2-yl]thiomethyl-3-cephem-4-carboxylate(syn-isomer)]	0.05	0.1	3.12	0.025	3.12	< 0.006		< 0.006		0.05	0.39	0.78	0.025	0.39	0.2	0.39	0.05	0.1	0.025	0.2	MIC (Ps. cepacia 23; Burkholderia cepacia, 23, 16 h): 0.025 µg/mL; MIC (Ps. aeruginosa AK 109; AK109, 10^6 CFU/ml, Mueller Hinton agar, 37° C., 16 hours, read-out: MIC): 1.56 µg/mL
C=C(O/N=C(\C(=O)N[C@@H]1C(=O)N2C(C(=O)O)=C(CSc3nnc(-c4ccc(O)c(O)c4)s3)CS[C@H]12)c1csc(N)n1)C(=O)O [Example 13, disodium 7β-[2-(2-aminothiazol-4-yl)-2-(1-carboxylato-1-vinyloxyimino)acetamido]-3-[5-(3,4-dihydroxyphenyl)-1,3,4-thiadiazol-2-yl]thiomethyl-3-cephem-4-carboxylate (syn-isomer)]	0.0125		3.12	< 0.006		0.0125	< 0.006	< 0.006	0.1		0.05	0.78	< 0.006	0.2	0.1	0.2			0.025	0.05	MIC (K. oxytoca GN10650*; GN10650, 16 h): 0.025 µg/mL; MIC (Ps. aeruginosa AKR17; AKR17, 16 h): 1.56 µg/mL; MIC (M. morganii GN5407*; GN5407, 16 h): 0.1 µg/mL; MIC (S. marcescens IAM 1184; IAM1184, 16 h): 0.025 µg/mL; MIC (E. cloacae Nek 39*; 16 h): 0.05 µg/mL
